Counter-ions that a name gives are not always drawn.
Key:
[1] = test system: A549 cells; assay: Cell-based assay: anti-proliferative activity, Cell Counting Kit-8, 72 hours (A549); conditions: MELK-expressing, Cell Counting Kit-8 at 72 hours
Outline: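 A549 cells were seeded in 96-well plates and exposed to candidate inhibitors for 72 hours. Cell growth was then measured with Cell Counting Kit-8, and IC50 values were calculated from the resulting growth data.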

[2] = test system: HT-1197 cells; assay: Cell-based assay: anti-proliferative activity, Cell Counting Kit-8, 72 hours (HT-1197, negative control without MELK expression); conditions: HT1197 cells, no MELK expression (negative control), Cell Counting Kit-8 at 72 hours
Outline: (§1)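 First, lysates underwent western blotting with anti-MELK antibody to establish expression. Next, cells went into 96-well plates. Then candidate inhibitors were added. Finally, viability was determined by CCK-8 at 72 h and IC50 computed.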

[3] = target: MELK (Homo sapiens, UniProt Q14680); assay: Kinase assay: MELK activity, phosphorylation of FITC-labeled histone H3 peptide measured by IMAP fluorescence polarization; type: biochemical; conditions: 50 micro-M ATP, FITC-labeled histone H3 peptide substrate, IMAP fluorescence polarization; read-out: IC50 (μM) (kinase assay)
Sequence of MELK (Q14680 whole entry, looked up): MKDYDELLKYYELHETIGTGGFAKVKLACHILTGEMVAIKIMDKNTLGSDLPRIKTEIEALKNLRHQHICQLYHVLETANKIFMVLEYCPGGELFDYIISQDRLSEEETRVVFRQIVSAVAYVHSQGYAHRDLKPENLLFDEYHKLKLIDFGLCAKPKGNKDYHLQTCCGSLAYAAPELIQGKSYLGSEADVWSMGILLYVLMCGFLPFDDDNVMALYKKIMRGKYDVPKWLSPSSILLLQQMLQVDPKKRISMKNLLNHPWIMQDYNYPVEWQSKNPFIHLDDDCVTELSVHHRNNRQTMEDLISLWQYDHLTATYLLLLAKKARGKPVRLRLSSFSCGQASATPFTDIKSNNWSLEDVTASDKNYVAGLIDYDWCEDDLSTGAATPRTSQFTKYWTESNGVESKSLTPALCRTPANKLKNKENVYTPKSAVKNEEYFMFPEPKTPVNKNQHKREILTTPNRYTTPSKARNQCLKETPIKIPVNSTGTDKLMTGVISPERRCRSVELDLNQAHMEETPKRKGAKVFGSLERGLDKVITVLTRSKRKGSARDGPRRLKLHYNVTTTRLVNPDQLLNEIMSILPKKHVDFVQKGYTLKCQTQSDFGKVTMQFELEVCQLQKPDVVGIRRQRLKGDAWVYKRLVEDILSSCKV
Outline: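 Kinase reactions ran with or without test compound (final DMSO 1%) on a fluorescein-tagged H3 peptide. Progressive binding solution was added to terminate them. After a half-hour room-temperature incubation, polarization was measured.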

[4] = test system: BT-549 cells; assay: Cell-based assay: anti-proliferative activity, Cell Counting Kit-8, 72 hours (BT-549); conditions: BT549 cells, MELK-expressing, Cell Counting Kit-8 at 72 hours
Protocol: To evaluate the expression status of MELK in several cell lines, western blot analysis was performed using crude cell lysate collected from those cells. Anti-MELK antibody (clone 31, BD Biosciences) was used to visualize the expression.
Active candidate inhibitors against MELK were evaluated for their target-specific cytotoxicity using T47D, A549, BT-549, and HT-1197 cells was used for negative control. 100 micro-L of cell suspension was seeded onto 96-well microtiter plate (ViewPlate-96FTC, PerkinElmer). The initial cell concentration of T47D, A549, BT-549, and HT-1197 were 3,000 cells/well, 2,000 cells/well and 2,500 cells/well, respectively. Cellular growth was determined using Cell Counting Kit-8 (DOJINDO) at 72 hours after the exposure of the candidate inhibitors. […] Accurate IC50 values were calculated as described previously.

[5] = test system: T47D cells; assay: Cell-based assay: anti-proliferative activity, Cell Counting Kit-8, 72 hours (T47D); conditions: MELK-expressing, Cell Counting Kit-8 at 72 hours
Outline: as §1

COc1cc(-c2ccc3ncc(C(=O)C4CC4)c(N[C@H]4CC[C@H](CN(C)C)CC4)c3c2)cc(Cl)c1O [Example 316]
IC50 ([1]; Homo sapiens, A549, 72 h): 0.32 µM | IC50 ([2]; Homo sapiens, HT1197, 72 h): 6.3 µM | IC50 [3]: 0.011 µM | IC50 ([4]; Homo sapiens, BT-549, 72 h): 1.3 µM | IC50 ([5]; Homo sapiens, T47D, 72 h): 0.5 µM

N[C@H]1CC[C@H](Nc2c(C(=O)C3CC3)cnc3ccc(-c4cc(Cl)c(O)cc4Cl)cc23)CC1 [Example 160, {4-[trans-4-Aminocyclohexylamino]-6-(2,5-dichloro-4-hydroxyphenyl)quinolin-3-yl}(cyclopropyl)methanone]
IC50 ([1]; Homo sapiens, A549, 72 h): 0.68 µM | IC50 ([2]; Homo sapiens, HT1197, 72 h): 1.2 µM | IC50 [3]: 0.072 µM | IC50 ([4]; Homo sapiens, BT-549, 72 h): 0.39 µM | IC50 ([5]; Homo sapiens, T47D, 72 h): 0.28 µM

CCOc1cc(-c2ccc3ncc(C(=O)C4CC4)c(N4CCC(CN(C)C)CC4)c3c2)ccc1O [Example 353, Cyclopropyl[4-{4-[(dimethylamino)methyl]piperidin-1-yl}-6-(3-ethoxy-4-hydroxyphenyl)quinolin-3-yl]methanone]
IC50 ([1]; Homo sapiens, A549, 72 h): 0.68 µM | IC50 ([2]; Homo sapiens, HT1197, 72 h): 2.5 µM | IC50 [3]: 0.0017 µM | IC50 ([4]; Homo sapiens, BT-549, 72 h): 1.5 µM | IC50 ([5]; Homo sapiens, T47D, 72 h): 0.61 µM

COc1cc(-c2ccc3ncc(C(=O)C4CC4)c(-c4ccc(CN(C)C)cc4)c3c2)cc(Cl)c1O [Example 356]
IC50 ([1]; Homo sapiens, A549, 72 h): 0.45 µM | IC50 ([2]; Homo sapiens, HT1197, 72 h): 3.5 µM | IC50 [3]: 0.0042 µM | IC50 ([4]; Homo sapiens, BT-549, 72 h): 0.87 µM | IC50 ([5]; Homo sapiens, T47D, 72 h): 0.46 µM

N[C@H]1CC[C@H](Nc2c(C(=O)C3CC3)cnc3ccc(-c4ccc5[nH]cnc5c4)cc23)CC1 [Example 116, {4-[trans-4-Aminocyclohexylamino]-6-(1H-benzo[d]imidazol-5-yl)quinolin-3-yl}(cyclopropyl)methanone]
IC50 ([1]; Homo sapiens, A549, 72 h): 13 µM | IC50 ([2]; Homo sapiens, HT1197, 72 h): 15 µM | IC50 [3]: 0.018 µM | IC50 ([4]; Homo sapiens, BT-549, 72 h): 5.7 µM | IC50 ([5]; Homo sapiens, T47D, 72 h): 1.8 µM

CN(C)[C@H]1CC[C@H](CNc2c(C(=O)C3CC3)cnc3ccc(-c4cc(F)c(O)c(Cl)c4)cc23)CC1 [Example 327]
IC50 ([1]; Homo sapiens, A549, 72 h): 0.42 µM | IC50 ([2]; Homo sapiens, HT1197, 72 h): 3 µM | IC50 [3]: 0.0055 µM | IC50 ([4]; Homo sapiens, BT-549, 72 h): 1 µM | IC50 ([5]; Homo sapiens, T47D, 72 h): 0.48 µM

CCN(CC)C1CCC(Nc2c(C(=O)C3CC3)cnc3ccc(-c4ccc(O)c(OC)c4)cc23)CC1 (stereo not drawn) [Example 193, Cyclopropyl{4-[4-(diethylamino)cyclohexylamino]-6-(4-hydroxy-3-methoxyphenyl)quinolin-3-yl}methanone]
IC50 ([1]; Homo sapiens, A549, 72 h): 0.59 µM | IC50 ([2]; Homo sapiens, HT1197, 72 h): 4.2 µM | IC50 [3]: 0.007 µM | IC50 ([4]; Homo sapiens, BT-549, 72 h): 2 µM | IC50 ([5]; Homo sapiens, T47D, 72 h): 0.52 µM

CC(=O)c1cnc2ccc(-c3cc(F)c(O)c(Cl)c3)cc2c1N1CCC(CN2CCCC2)CC1 [Example 336, 1-{6-(3-Chloro-5-fluoro-4-hydroxyphenyl)-4-[4-(pyrrolidin-1-ylmethyl)piperidin-1-yl]quinolin-3-yl}ethanone]
IC50 ([1]; Homo sapiens, A549, 72 h): 0.8 µM | IC50 ([2]; Homo sapiens, HT1197, 72 h): 5 µM | IC50 [3]: 0.0069 µM | IC50 ([4]; Homo sapiens, BT-549, 72 h): 0.85 µM | IC50 ([5]; Homo sapiens, T47D, 72 h): 0.33 µM

COc1cc(-c2cc3c(N[C@H]4CC[C@H](N)CC4)c(C(=O)C4CC4)cnc3cc2F)cc(Cl)c1O [Example 284, {4-[trans-4-aminocyclohexylamino]-6-(3-chloro-4-hydroxy-5-methoxyphenyl)-7-fluoroquinolin-3-yl}(cyclopropyl)methanone]
IC50 ([1]; Homo sapiens, A549, 72 h): 0.49 µM | IC50 ([2]; Homo sapiens, HT1197, 72 h): 2.2 µM | IC50 [3]: 0.013 µM | IC50 ([4]; Homo sapiens, BT-549, 72 h): 1.7 µM | IC50 ([5]; Homo sapiens, T47D, 72 h): 0.62 µM

COc1cc(-c2ccc3ncc(C(C)=O)c(N4CCC(CN5CCCC5)CC4)c3c2)cc(Cl)c1O [Example 321, 1-{6-(3-Chloro-4-hydroxy-5-methoxyphenyl)-4-[4-(pyrrolidin-1-ylmethyl)piperidin-1-yl]quinolin-3-yl}ethanone]
IC50 ([1]; Homo sapiens, A549, 72 h): 0.18 µM | IC50 ([2]; Homo sapiens, HT1197, 72 h): 5.1 µM | IC50 [3]: 0.0027 µM | IC50 ([4]; Homo sapiens, BT-549, 72 h): 0.29 µM | IC50 ([5]; Homo sapiens, T47D, 72 h): 0.19 µM

CCN(CC)C1CCC(Nc2c(C(=O)C3CC3)cnc3ccc(-c4cc(Cl)c(O)c(OC)c4)cc23)CC1 (stereo not drawn) [Example 185(b), {6-(3-Chloro-4-hydroxy-5-methoxyphenyl)-4-[4-(diethylamino)cyclohexylamino]quinolin-3-yl}(cyclopropyl)methanone dihydrochloride]
IC50 ([1]; dihydrochloride): 0.18 µM | IC50 ([2]; dihydrochloride): 4.7 µM | IC50 ([4]; dihydrochloride): 1 µM | IC50 ([5]; dihydrochloride): 0.49 µM

— US9120749B2, “Quinoline derivatives and MELK inhibitors containing the same” (ONCOTHERAPY SCIENCE, INC., priority 2010, dated 2015)
